In general, IC50 refers to the concentration at which inhibition is half-maximal.

A value given as a limit tells only on which side of the number the result lay.

The target in one assay is Ephrin type-A receptor 2 (Homo sapiens, UniProt P29317). Nature of the assay: Inhibition of recombinant human N-terminal His6-tagged EphA2 (N598 to R890 residues) expressed in baculovirus using poly-EY as substrate after 180 mins by luciferase coupled chemiluminescence assay.
In another assay the target is T1, Ephrin type-B receptor 4 (Homo sapiens, UniProt P54760).
T1 sequence (P54760 whole entry): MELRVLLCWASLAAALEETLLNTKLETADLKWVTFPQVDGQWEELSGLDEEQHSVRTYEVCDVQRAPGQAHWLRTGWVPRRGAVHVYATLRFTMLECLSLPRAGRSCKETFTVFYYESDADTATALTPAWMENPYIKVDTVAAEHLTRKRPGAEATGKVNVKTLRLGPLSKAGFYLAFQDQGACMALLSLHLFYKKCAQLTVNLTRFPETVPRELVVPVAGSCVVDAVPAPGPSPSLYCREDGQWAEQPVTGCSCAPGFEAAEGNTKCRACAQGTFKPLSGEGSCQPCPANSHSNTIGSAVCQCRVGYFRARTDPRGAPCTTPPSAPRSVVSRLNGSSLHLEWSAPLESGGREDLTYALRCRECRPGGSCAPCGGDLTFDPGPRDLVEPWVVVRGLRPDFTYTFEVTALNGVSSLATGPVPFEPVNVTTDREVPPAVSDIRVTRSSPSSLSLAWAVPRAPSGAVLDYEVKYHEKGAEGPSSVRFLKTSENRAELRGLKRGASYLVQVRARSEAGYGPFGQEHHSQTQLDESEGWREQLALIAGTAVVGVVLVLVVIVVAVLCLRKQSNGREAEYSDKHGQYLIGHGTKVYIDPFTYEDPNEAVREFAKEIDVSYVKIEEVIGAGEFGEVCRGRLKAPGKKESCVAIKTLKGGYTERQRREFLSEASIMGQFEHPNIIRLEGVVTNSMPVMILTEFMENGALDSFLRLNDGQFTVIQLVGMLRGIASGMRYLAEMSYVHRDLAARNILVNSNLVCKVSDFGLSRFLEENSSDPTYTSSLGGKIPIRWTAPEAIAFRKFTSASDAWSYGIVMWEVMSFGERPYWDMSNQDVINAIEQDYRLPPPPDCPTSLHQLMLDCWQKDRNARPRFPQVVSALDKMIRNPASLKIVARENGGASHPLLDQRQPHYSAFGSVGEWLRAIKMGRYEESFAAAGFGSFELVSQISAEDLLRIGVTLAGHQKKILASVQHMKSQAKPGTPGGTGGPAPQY
Nature of the assay: Inhibition of recombinant human N-terminal His6-tagged EphB4 kinase domain (E605 to E890 residues) expressed in baculovirus using poly-AEKY as substrate after 150 mins in presence of gamma33P-ATP by liquid scintillation spectrometry.

The target of assay [1] is Receptor tyrosine-protein kinase erbB-2 (Homo sapiens, UniProt P04626). Kind of assay: Inhibition of recombinant human N-terminal GST His6-tagged thrombin cleavage site-fused ErbB2 kinase domain (Q679 to V1255 residues) expressed in baculovirus infected insect Sf9 cells using biotinylated poly-EY as substrate after 60 mins by alphascreen assay. (In Alpha technology, singlet oxygen from a donor bead excites a nearby acceptor bead.)

Assay [2] concerns the target Vascular endothelial growth factor receptor 2 (Homo sapiens, UniProt P35968). Kind of assay: Inhibition of recombinant human N-terminal GST-fused KDR (D807 to V1356 residues) expressed in baculovirus infected […] insect Sf9 cells using poly-EY as substrate after 240 mins by luciferase coupled chemiluminescence assay.

Chain of Receptor tyrosine-protein kinase erbB-2 (P04626 whole entry, the tested form may be a part): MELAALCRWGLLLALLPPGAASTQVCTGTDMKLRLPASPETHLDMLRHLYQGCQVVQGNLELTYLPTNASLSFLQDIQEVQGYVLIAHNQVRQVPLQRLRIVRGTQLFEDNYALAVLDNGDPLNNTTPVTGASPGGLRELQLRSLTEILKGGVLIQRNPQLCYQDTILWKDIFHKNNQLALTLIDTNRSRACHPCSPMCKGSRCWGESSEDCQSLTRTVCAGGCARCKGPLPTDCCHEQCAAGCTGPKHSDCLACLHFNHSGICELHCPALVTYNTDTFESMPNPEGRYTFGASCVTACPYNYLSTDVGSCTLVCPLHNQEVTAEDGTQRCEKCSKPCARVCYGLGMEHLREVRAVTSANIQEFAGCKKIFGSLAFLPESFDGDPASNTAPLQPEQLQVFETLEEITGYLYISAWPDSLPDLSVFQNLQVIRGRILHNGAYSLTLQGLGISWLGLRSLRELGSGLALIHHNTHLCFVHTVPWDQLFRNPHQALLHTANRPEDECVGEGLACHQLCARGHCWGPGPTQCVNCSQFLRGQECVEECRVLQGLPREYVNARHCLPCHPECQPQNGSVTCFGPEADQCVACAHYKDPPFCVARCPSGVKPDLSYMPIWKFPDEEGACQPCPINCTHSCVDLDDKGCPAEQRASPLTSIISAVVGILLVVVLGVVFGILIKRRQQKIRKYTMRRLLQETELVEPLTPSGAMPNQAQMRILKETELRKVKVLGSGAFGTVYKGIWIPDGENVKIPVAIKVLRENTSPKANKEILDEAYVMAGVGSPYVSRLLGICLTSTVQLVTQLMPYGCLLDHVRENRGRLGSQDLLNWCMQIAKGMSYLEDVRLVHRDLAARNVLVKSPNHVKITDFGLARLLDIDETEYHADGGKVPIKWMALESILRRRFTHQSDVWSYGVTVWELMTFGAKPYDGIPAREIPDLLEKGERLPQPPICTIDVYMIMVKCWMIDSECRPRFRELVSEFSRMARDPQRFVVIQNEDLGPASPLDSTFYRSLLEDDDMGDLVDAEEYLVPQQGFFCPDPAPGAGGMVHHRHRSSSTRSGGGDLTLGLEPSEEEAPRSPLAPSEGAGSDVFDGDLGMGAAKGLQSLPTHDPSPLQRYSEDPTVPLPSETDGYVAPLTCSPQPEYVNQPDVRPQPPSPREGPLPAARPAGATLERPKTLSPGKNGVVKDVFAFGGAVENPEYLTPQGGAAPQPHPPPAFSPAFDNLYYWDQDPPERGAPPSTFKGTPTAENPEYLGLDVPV
Chain of Vascular endothelial growth factor receptor 2 (P35968 whole entry, the tested form may be a part): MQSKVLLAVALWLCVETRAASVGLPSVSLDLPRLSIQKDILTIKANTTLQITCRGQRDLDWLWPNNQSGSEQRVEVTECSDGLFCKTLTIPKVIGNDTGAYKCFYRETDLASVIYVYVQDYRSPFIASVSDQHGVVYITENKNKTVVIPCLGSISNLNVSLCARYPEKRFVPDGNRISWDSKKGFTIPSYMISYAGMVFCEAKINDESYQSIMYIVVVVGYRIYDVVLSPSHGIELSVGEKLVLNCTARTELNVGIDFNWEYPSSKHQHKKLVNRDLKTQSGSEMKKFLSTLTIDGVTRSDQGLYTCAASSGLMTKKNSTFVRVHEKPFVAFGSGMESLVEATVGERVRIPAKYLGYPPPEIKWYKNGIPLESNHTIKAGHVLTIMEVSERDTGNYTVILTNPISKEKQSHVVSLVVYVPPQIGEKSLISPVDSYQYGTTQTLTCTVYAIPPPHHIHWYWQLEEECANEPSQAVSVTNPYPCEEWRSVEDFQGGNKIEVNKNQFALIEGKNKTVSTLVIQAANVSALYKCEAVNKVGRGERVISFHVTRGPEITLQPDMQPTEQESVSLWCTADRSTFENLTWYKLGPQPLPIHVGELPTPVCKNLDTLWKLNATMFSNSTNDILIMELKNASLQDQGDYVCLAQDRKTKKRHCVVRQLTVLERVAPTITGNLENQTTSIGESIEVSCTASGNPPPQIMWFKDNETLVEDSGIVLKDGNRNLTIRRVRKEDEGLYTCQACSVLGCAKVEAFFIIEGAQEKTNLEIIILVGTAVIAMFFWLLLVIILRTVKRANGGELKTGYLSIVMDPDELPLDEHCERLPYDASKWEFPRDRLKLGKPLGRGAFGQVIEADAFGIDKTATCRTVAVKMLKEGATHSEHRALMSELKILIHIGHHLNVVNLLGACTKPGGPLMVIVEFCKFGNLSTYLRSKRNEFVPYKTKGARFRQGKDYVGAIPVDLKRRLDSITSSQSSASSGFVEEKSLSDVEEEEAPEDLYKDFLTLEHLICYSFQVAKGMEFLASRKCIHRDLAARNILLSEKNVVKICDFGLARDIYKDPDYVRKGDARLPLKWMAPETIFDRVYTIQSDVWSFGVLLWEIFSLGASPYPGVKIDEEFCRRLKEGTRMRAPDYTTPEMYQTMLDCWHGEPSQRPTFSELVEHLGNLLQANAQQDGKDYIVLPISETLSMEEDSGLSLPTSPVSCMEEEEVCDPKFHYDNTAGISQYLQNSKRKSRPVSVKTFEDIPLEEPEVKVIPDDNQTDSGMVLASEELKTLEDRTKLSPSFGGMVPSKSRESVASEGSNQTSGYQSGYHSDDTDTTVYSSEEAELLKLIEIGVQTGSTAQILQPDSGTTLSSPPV
Chain of Ephrin type-A receptor 2 (P29317 whole entry, the tested form may be a part): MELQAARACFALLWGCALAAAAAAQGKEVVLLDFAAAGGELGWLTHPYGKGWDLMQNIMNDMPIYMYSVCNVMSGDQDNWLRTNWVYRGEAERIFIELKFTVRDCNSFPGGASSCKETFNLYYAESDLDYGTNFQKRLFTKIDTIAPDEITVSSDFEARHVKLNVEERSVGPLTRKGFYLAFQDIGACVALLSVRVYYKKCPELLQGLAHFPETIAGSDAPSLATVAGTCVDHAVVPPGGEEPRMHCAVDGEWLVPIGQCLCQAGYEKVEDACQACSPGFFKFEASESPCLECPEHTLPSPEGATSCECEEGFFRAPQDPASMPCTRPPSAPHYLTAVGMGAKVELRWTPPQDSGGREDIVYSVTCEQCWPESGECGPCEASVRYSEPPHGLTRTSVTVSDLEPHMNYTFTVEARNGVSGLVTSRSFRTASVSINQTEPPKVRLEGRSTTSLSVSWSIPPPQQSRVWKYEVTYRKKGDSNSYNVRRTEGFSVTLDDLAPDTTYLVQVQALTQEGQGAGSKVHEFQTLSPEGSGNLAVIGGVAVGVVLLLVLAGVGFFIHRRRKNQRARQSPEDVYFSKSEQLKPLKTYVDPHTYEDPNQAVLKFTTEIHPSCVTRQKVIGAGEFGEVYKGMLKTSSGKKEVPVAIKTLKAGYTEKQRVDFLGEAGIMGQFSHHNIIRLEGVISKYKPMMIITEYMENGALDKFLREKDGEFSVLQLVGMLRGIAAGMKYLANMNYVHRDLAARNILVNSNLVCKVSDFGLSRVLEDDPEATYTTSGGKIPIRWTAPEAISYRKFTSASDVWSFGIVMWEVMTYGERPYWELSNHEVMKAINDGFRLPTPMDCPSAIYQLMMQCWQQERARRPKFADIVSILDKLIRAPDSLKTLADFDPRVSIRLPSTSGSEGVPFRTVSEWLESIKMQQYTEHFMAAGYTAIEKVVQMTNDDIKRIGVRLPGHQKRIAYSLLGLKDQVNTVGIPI

`COc1cc2c(Nc3ccc(C)c(Cl)c3Cl)ncnc2cc1OCC1CN(C)CCO1` (stereo not given): the IC50 at Ephrin type-A receptor 2 was 50 to 1000 nM; at Ephrin type-B receptor 4, 50 to 1000 nM; in assay [1] it was 1000 to 20000 nM; in assay [2], under 50 nM.
With `COc1cc2c(Nc3ccc(Cl)c(Cl)c3)ncnc2cc1OCC1CN(C)C(C)(C)C(=O)O1` (stereo not given), the IC50 is 50 to 1000 nM at Ephrin type-A receptor 2, under 50 nM on Ephrin type-B receptor 4, 50 to 1000 nM in assay [1] and 50 to 1000 nM in assay [2].
Regarding `COc1cc2c(Nc3ccc(F)c(Cl)c3F)ncnc2cc1OCC1CN(C)C(C)(C)CO1` (stereo not given), the IC50 was under 50 nM at Ephrin type-A receptor 2, under 50 nM at Ephrin type-B receptor 4, 50 to 1000 nM in assay [1] and 50 to 1000 nM in assay [2].
As to `CN/C(=N\C#N)N1CCOC(COc2cc3ncnc(Nc4ccc(Cl)c(C)c4)c3cc2OC)C1` (stereo not given), the IC50 on Ephrin type-A receptor 2 was 50 to 1000 nM; at Ephrin type-B receptor 4, under 50 nM; in assay [1], under 50 nM; in assay [2] it was 50 to 1000 nM.
With `COc1cc2c(Nc3ccc(Cl)c(Cl)c3F)ncnc2cc1OCC1CN(C)CCO1` (stereo not given), the concentration for half-maximal inhibition (IC50) (at Ephrin type-A receptor 2; on Ephrin type-B receptor 4; in assay [1]; in assay [2]) was under 50 nM in each case.
Take `COc1cc2c(Nc3ccc(F)c(Cl)c3F)ncnc2cc1OCC1CN(C)CCO1` (stereo not given): the IC50 (at Ephrin type-A receptor 2; at Ephrin type-B receptor 4; in assay [1]; in assay [2]) was under 50 nM in each case.
For `COc1cc2c(Nc3ccc(Cl)c(Cl)c3)ncnc2cc1OCC1CN(C)C(C)(C)CO1` (stereo not given), the IC50 was 50 to 1000 nM at Ephrin type-A receptor 2, under 50 nM at Ephrin type-B receptor 4, under 50 nM in assay [1] and under 50 nM in assay [2].
On to `COc1cc2c(Nc3ccc(Cl)c(Cl)c3)ncnc2cc1OCCC1CN(C(=O)OC(C)(C)C)C(C)(C)CO1` (stereo not given), for which the IC50 (at Ephrin type-A receptor 2; at Ephrin type-B receptor 4; in assay [1]; in assay [2]) was 1000 to 20000 nM throughout.
Turning to `COc1cc2c(Nc3ccc(Cl)c(Cl)c3F)ncnc2cc1OCC1CN(C)C(C)(C)CO1` (stereo not given), the IC50 (on Ephrin type-A receptor 2; on Ephrin type-B receptor 4; in assay [1]; in assay [2]) was under 50 nM in each case.
With `COc1cc2c(Nc3ccc(Cl)c(Cl)c3C)ncnc2cc1OCC1CN(C)CCO1` (stereo not given), the IC50 on Ephrin type-A receptor 2 is 50 to 1000 nM; at Ephrin type-B receptor 4, under 50 nM; in assay [1] it was 1000 to 20000 nM; in assay [2] it was 50 to 1000 nM.
Take `COc1cc2c(Nc3cc(Cl)c(Cl)cc3F)ncnc2cc1OCC1CN(C)C(C)(C)CO1` (stereo not given): the IC50 (on Ephrin type-A receptor 2; at Ephrin type-B receptor 4; in assay [1]; in assay [2]) was under 50 nM in each case.
Regarding `COc1cc2c(Nc3ccc(Br)c(Cl)c3F)ncnc2cc1OCC1CN(C)CCO1` (stereo not given), the IC50 (on Ephrin type-A receptor 2; at Ephrin type-B receptor 4; in assay [1]; in assay [2]) was under 50 nM throughout.
`COc1cc2c(Nc3ccc(Br)c(Cl)c3C)ncnc2cc1OCC1CN(C)CCO1` (stereo not given): the IC50 (on Ephrin type-A receptor 2; on Ephrin type-B receptor 4; in assay [1]; in assay [2]) was 50 to 1000 nM in each case.
Take `COc1cc2c(Nc3ccc(Cl)c(Cl)c3F)ncnc2cc1OC[C@@H]1CN(C)CC(=O)N1`: the IC50 (on Ephrin type-A receptor 2; at Ephrin type-B receptor 4; in assay [1]; in assay [2]) was 50 to 1000 nM throughout.
Take `COc1cc2c(Nc3ccc(Br)c(C)c3)ncnc2cc1OCC1CN(C)CCO1` (stereo not given): the IC50 (at Ephrin type-A receptor 2; at Ephrin type-B receptor 4; in assay [1]; in assay [2]) was 50 to 1000 nM in each case.
As for `COc1cc2c(Nc3ccc(Br)c(Cl)c3F)ncnc2cc1OC[C@@H]1CN(C)CC(=O)N1`, the IC50 (at Ephrin type-A receptor 2; at Ephrin type-B receptor 4; in assay [1]; in assay [2]) was 50 to 1000 nM throughout.
On to `CC(C)Oc1cc2c(Nc3ccc(Cl)c(Cl)c3)ncnc2cc1OCC1CN(C)CCO1` (stereo not given), for which the IC50 (at Ephrin type-A receptor 2; on Ephrin type-B receptor 4; in assay [1]; in assay [2]) was under 50 nM each time.
Turning to `COc1cc2c(Nc3ccc(Cl)c(Cl)c3)ncnc2cc1OCCC1CN(C)CC(C)(C)O1` (stereo not given), the IC50 at Ephrin type-A receptor 2 is 1000 to 20000 nM; at Ephrin type-B receptor 4 it was 50 to 1000 nM; in assay [1], 50 to 1000 nM; in assay [2] it was 50 to 1000 nM.
`COc1cc2c(Nc3ccc(Br)c(Cl)c3F)ncnc2cc1OCC1CN(C)C(C)(C)CO1` (stereo not given): the IC50 (at Ephrin type-A receptor 2; on Ephrin type-B receptor 4; in assay [1]; in assay [2]) was under 50 nM each time.
Take `CCOc1cc2c(Nc3ccc(Cl)c(Cl)c3)ncnc2cc1OCC1CN(C)CCO1` (stereo not given): the IC50 (on Ephrin type-A receptor 2; on Ephrin type-B receptor 4; in assay [1]; in assay [2]) was under 50 nM throughout.
For `COc1cc2c(Nc3ccc(Br)c(F)c3F)ncnc2cc1OCC1CN(C)CCO1` (stereo not given), the IC50 is 50 to 1000 nM on Ephrin type-A receptor 2, 50 to 1000 nM on Ephrin type-B receptor 4, 50 to 1000 nM in assay [1] and under 50 nM in assay [2].
As for `CCNC(=NC#N)N1CCOC(COc2cc3ncnc(Nc4ccc(Cl)c(Cl)c4)c3cc2OC)C1` (stereo not given), the IC50 on Ephrin type-A receptor 2 was 50 to 1000 nM; at Ephrin type-B receptor 4, under 50 nM; in assay [1], under 50 nM; in assay [2] it was 50 to 1000 nM.
For the compound `COc1cc2c(Nc3ccc(Br)c(Cl)c3)ncnc2cc1OCC1CN(C)CCO1` (stereo not given), the IC50 on Ephrin type-A receptor 2 is under 50 nM; at Ephrin type-B receptor 4 it was under 50 nM; in assay [1] it was 50 to 1000 nM; in assay [2], under 50 nM.
As for `COc1cc2c(Nc3cc(F)c(Br)cc3F)ncnc2cc1OCC1CN(C)CCO1` (stereo not given), the IC50 at Ephrin type-A receptor 2 was 50 to 1000 nM; on Ephrin type-B receptor 4 it was 50 to 1000 nM; in assay [1], 50 to 1000 nM; in assay [2], under 50 nM.
As to `COc1cc2c(Nc3cc(F)c(Br)c(F)c3)ncnc2cc1OCC1CN(C)CCO1` (stereo not given), the IC50 on Ephrin type-A receptor 2 is 50 to 1000 nM; at Ephrin type-B receptor 4, 50 to 1000 nM; in assay [1], 50 to 1000 nM; in assay [2], under 50 nM.
In the case of `COc1cc2c(Nc3ccc(Cl)c(Cl)c3)ncnc2cc1OCC1CN(C(C)=O)CCCO1` (stereo not given), the IC50 was 50 to 1000 nM at Ephrin type-A receptor 2, under 50 nM on Ephrin type-B receptor 4, under 50 nM in assay [1] and 50 to 1000 nM in assay [2].
Turning to `COc1cc2c(Nc3ccc(Cl)c(Cl)c3)ncnc2cc1OCCC1CN(C)C(C)(C)CO1` (stereo not given), the IC50 (at Ephrin type-A receptor 2; at Ephrin type-B receptor 4; in assay [1]; in assay [2]) was 50 to 1000 nM in each case.
For `CC(C)Oc1cc2c(Nc3ccc(Cl)c(Cl)c3)ncnc2cc1OCC1CNCCO1` (stereo not given), the IC50 (on Ephrin type-A receptor 2; on Ephrin type-B receptor 4; in assay [1]; in assay [2]) was under 50 nM each time.
For `COc1cc2c(Nc3ccc(Cl)c(Cl)c3)ncnc2cc1OCCC1CNC(C)(C)CO1` (stereo not given), the IC50 (on Ephrin type-A receptor 2; at Ephrin type-B receptor 4; in assay [1]; in assay [2]) was 50 to 1000 nM in each case.
Turning to `COc1cc2c(Nc3cc(Cl)c(Cl)cc3F)ncnc2cc1OCC1CN(C)CCO1` (stereo not given), the IC50 on Ephrin type-A receptor 2 was 50 to 1000 nM; at Ephrin type-B receptor 4, under 50 nM; in assay [1] it was 50 to 1000 nM; in assay [2], 50 to 1000 nM.
`COc1cc2c(Nc3ccc(Cl)c(Cl)c3)ncnc2cc1OCC1CN(C(=O)c2cccnc2Cl)CCO1` (stereo not given): the IC50 on Ephrin type-A receptor 2 is 50 to 1000 nM; at Ephrin type-B receptor 4 it was under 50 nM; in assay [1] it was under 50 nM; in assay [2], under 50 nM.
On to `COc1cc2c(Nc3ccc(Cl)c(Cl)c3)ncnc2cc1OCC1CN(/C(=N/C#N)N2CCCC2)CCO1` (stereo not given), for which the IC50 on Ephrin type-A receptor 2 is under 50 nM; on Ephrin type-B receptor 4 it was under 50 nM; in assay [1], under 50 nM; in assay [2], 50 to 1000 nM.
For `COc1cc2c(Nc3cc(Cl)c(Br)cc3F)ncnc2cc1OCC1CN(C)C(C)(C)CO1` (stereo not given), the IC50 at Ephrin type-A receptor 2 was under 50 nM; at Ephrin type-B receptor 4, under 50 nM; in assay [1] it was 50 to 1000 nM; in assay [2], under 50 nM.
Regarding `COc1cc2c(Nc3ccc(Br)c(Cl)c3Cl)ncnc2cc1OCC1CN(C)CCO1` (stereo not given), the IC50 at Ephrin type-A receptor 2 was 50 to 1000 nM; on Ephrin type-B receptor 4 it was under 50 nM; in assay [1], 50 to 1000 nM; in assay [2], 50 to 1000 nM.
Consider `COc1cc2c(Nc3ccc(Br)c(Cl)c3Cl)ncnc2cc1OCC1CN(C)C(C)(C)CO1` (stereo not given), for which the IC50 is under 50 nM at Ephrin type-A receptor 2, under 50 nM at Ephrin type-B receptor 4, 50 to 1000 nM in assay [1] and 50 to 1000 nM in assay [2].

The values are drawn from ChEMBL document CHEMBL3882729, “Receptor-type kinase modulators and methods of use” (2009).
